Test results published in US20020107193A1, “Therapeutic uses for IP3 receptor-mediated calcium channel modulators” (priority 2000, published 2002).

Legend:
IP3 receptor = conditions: Gafni et al., 1997; cited from earlier work
[1] = test system: IP3 receptors on microsomes; test: Microsome extract (MSE) effect on cytoplasmic NF-κB binding activity; format: biochemical, rat; conditions: direct activation of IP3 receptors on microsomes with IP3
Experimental: Cerebral cortices from adult female Sprague-Dawley rats were homogenized (20 strokes at 300 rpm) with a Teflon homogenizer in ice-cold buffer containing 1 mM EDTA, 0.32 M sucrose, 0.1 mM dithiothreitol and 1 mM HEPES as described previously (Chen et al., 1998, Diabetes 47:874-81) and cytoplasmic and microsome fractions were isolated by differential centrifugation. Briefly, tissue fragments and cellular debris were removed by centrifugation at 500 g for 10 min and supernatants were centrifuged at 20,000 g for 20 min to pellet intact mitochondria and nuclei. The supernatant was then centrifuged at 100,000 g for 1 h in order to obtain the cytoplasmic fraction and the microsomal pellet enriched in endoplasmic reticulum and golgi membranes. Microsome extracts (MSE) were prepared by suspending microsomes in 1:100 v/v ice-cold buffer and centrifuging at 100,000× g for 1 hr. Microsomes were then re-suspended in 1:2 v/v volume buffer and treated as described below. At the end of the treatment, the suspension was centrifuged at 100,000 g for 1 h, and supernatants were used as MSE. For experiments involving incubation of MSE with cytoplasmic extract, 3 μl of MSE were added to 10 μl cytoplasmic extract and mixtures were incubated at room temperature for 1 h.
[…] After 1 h at room temperature, samples were examined for NF-κB binding activity.
Indeed, the role calcium plays in this paradigm seems to be as an intraluminal signal.

CREB [2] = test: EMSA of CREB binding activity in cultured primary cortical neurons; format: cell-based, rat
Experimental: (§1) Cerebral cortices were removed from embryonic day 18 Sprague-Dawley rats (Harlan, Indianapolis, Ind.). Cells were dissociated as described previously (Mattson et al., 1995, J. Neurochem. 65:1740-1751.) and were seeded into polyethyleneimine-coated 60 mm culture dishes containing Eagle's Minimum Essential Medium supplemented with 26 mM NaHCO3, 40 mM glucose, 20 mM KCl, 1 mM sodium pyruvate, 10% (v/v) heat-inactivated fetal bovine serum (Sigma, St. Louis, Mo.), and 0.001% gentamycin sulfate. After a 3-5 h incubation period to allow for cell attachment, the medium was replaced with 2 ml of Neurobasal Medium with B27 supplements (GIBCO Life Technologies, Grand Island, N.Y.). Previous observations have shown that greater than 80% of the cells that attach in the first few hours after plating will survive longer than 7 days in Neurobasal Medium with no additional neurotrophic factors. Experimental treatments were performed on 7-to-9-day-old neuronal cultures in which there were approximately 5% contaminating glial cells.
(§2) Total cell extracts were prepared as described (Baeuerle and Baltimore, 1988, Cell 53:211-217). Briefly, cells were harvested, washed twice with ice-cold PBS and lysed for 30 min at 4° C. in Totex buffer (20 mM HEPES, pH 7.9, 350 mM NaC1, 20% glycerol, 1% NP-40, 1 mM MgC12, 0.5 mM EDTA, 0.1 mM EGTA, 5 mM DTT, 0.1% PMSF, 1% aprotinin, 4 μg/ml leupeptin). Samples were centrifuged at 14,000× g for 10 min and aliquots of supernatant were collected and stored at −70° C. until taken for assay. The protein content of the extract (supernatant) was measured by Bradford method (BIO-RAD Laboratories, Ercules, Calif., USA). […]
(§3) After 20 min at room temperature, reaction products were separated on a 7% non-denaturing polyacrylamide gel. […] Radioactivity of dried gels was detected by exposure to Kodak X-Omat film and images on the developed film were scanned into a computer using a UMAX 1200s scanner. […]
(§4) The possible involvement of endoplasmic reticulum pools of intracellular calcium regulated by IP3 receptors in controlling basal levels of NF-κB was investigated using Xestospongin C (XeC) a specific membrane permeable modulator of IP3-mediated Ca^2+release (Gafni et al., 1997, Neuron 19:723-733; Hu et al., 1999, J. Biol. Chem. 274:33995-33998), and thapsigargin (Tg), a specific inhibitor of ER calcium/ATPase (Thastrup et al., 1990, Proc. Natl. Acad. Sci. USA 87:2466-2470; Davidson and Varhol, 1995, J. Biol. Chem. 270:11731-11734.). Cultured primary cortical neurons were treated with either 1 μM XeC, 100 nM Tg or vehicle for 6 h and protein extracts were analyzed for NF-κB binding activity by EMSA electrophoresis.

NF-κB [3] = test: EMSA of NF-κB binding activity in cultured primary cortical neurons; format: cell-based, rat; conditions: 6 h; for induction of NF-κB binding activity by the agent alone: cortical neurons, 100 ng/ml TNFα, 100 nM Tg or 20 μM glutamate
Experimental: as §1, with “Previous observations have shown that greater than 80% of the cells that attach in the first few hours after plating will survive longer than 7 days in Neurobasal Medium with no additional neurotrophic factors.” left out
Total cell extracts were prepared as described (Baeuerle and Baltimore, 1988, Cell 53:211-217). Briefly, cells were harvested, washed twice with ice-cold PBS and lysed for 30 min at 4° C. in Totex buffer (20 mM HEPES, pH 7.9, 350 mM NaC1, 20% glycerol, 1% NP-40, 1 mM MgC12, 0.5 mM EDTA, 0.1 mM EGTA, 5 mM DTT, 0.1% PMSF, 1% aprotinin, 4 μg/ml leupeptin). Samples were centrifuged at 14,000× g for 10 min and aliquots of supernatant were collected and stored at −70° C. until taken for assay. The protein content of the extract (supernatant) was measured by Bradford method (BIO-RAD Laboratories, Ercules, Calif., USA).
After 20 min at room temperature, reaction products were separated on a 7% non-denaturing polyacrylamide gel. Competition experiments were performed by incubating extracts with labeled oligonucleotide probe in the presence of 100-fold molar excess unlabeled NF-KB or CREB oligonucleotide. To characterize the NF-KB complexes, supershift assays were performed. Extracts were preincubated for 45 min at room temperature with antibodies recognizing either p50 or p65 sub-units of NF-κB (Santa Cruz Biotechnology, Santa Cruz, Calif.) or c-Fos (Oncogene Research Products, Cambridge, Mass.). The mixtures were further incubated with ^32P-labeled probe and resolved as described above. Radioactivity of dried gels was detected by exposure to Kodak X-Omat film and images on the developed film were scanned into a computer using a UMAX 1200s scanner. Densitometry was performed using Scion Image software (Scion Inc., Frederick, Md.). Paint Shop Pro software (JASC Inc. Minneapolis, Minn.) was used for preparation of the final figures.
as §4

CREB [4] = test: Cell-free EMSA of CREB binding activity in brain cortex cytoplasmic fraction; format: biochemical, rat; conditions: calcium 10 μM, 100 μM and 1 mM, 1 h
Experimental: as §2, §3

NF-κB [5] = test: Cell-free EMSA of NF-κB binding activity in brain cortex cytoplasmic fraction; format: biochemical, rat; conditions: 1 h; calcium 1 μM to 10 mM; 10 μM BAPTA-AM alone or with 10 μM calcium
Experimental: as §2, §3

Compound: C1CCC[C@H]2CCCN3CC[C@H](CCCCCC[C@H]4CCCN5CC[C@H](CC1)O[C@H]45)O[C@H]23 [ArB, Araguspongine B]
- block of IP3-mediated calcium release (IP3 receptor): potent blockers

Compound: O=P(O)(O)O[C@@H]1[C@H](O)[C@H](O)[C@@H](OP(=O)(O)O)[C@H](OP(=O)(O)O)[C@H]1O [IP3, inositol-1,4,5 triphosphate, reference compound]
- NF-κB stimulating properties of MSE from treated microsomes [1]: NF-κB stimulating properties similar to that seen with Tg

Compound: tumor necrosis factor α [TNFα, reference compound]
- binding activity of CREB, agent alone (CREB [2]; cortical neurons, XeC 30 min pretreatment, 100 ng/ml TNFα 6 h, FIG. 2a): neither TNFα nor XeC alone affected the binding activity of CREB
- induction of NF-κB binding activity by the agent alone (NF-κB [3]): statistically significant (p<0.05) enhancement

Compound: O[C@@]12CCCCCC[C@H]3CCN4CCC[C@H](CCCCCC[C@H]5CCN(CCC1)[C@@H]2O5)[C@H]4O3 [XeD]
- block of IP3-mediated calcium release (IP3 receptor): potent blockers

Compound: [Ca+2] [calcium]
- CREB binding activity in cytoplasmic fraction (CREB [4]): greatly enhanced
- NF-κB binding activity in cytoplasmic fraction (NF-κB [5]): none of the calcium concentrations used increased NF-κB binding activity

Compound: CC(=O)OCOC(=O)CN(CC(=O)OCOC(C)=O)c1ccccc1OCCOc1ccccc1N(CC(=O)OCOC(C)=O)CC(=O)OCOC(C)=O [BAPTA-AM]
- NF-κB binding activity in cytoplasmic fraction (NF-κB [5]): had no affect

Compound: O[C@@]12CCCCCC[C@H]3CCN4CCC[C@@H](CCCCCC[C@H]5CCN(CCC1)[C@@H]2O5)[C@H]4O3 [DMXeB, demethylxestospongin B]
- block of IP3-mediated calcium release (IP3 receptor): potent blockers

Compound: C/C=C(/C)C(=O)O[C@H]1C(C)=C2[C@H]([C@@H]1OC(=O)CCCCCCC)[C@@](C)(OC(C)=O)C[C@H](OC(=O)CCC)[C@@]1(O)[C@H]2OC(=O)[C@@]1(C)O [Tg, thapsigargin, reference compound]
- CREB binding activity (CREB [2]; cultured primary cortical neurons, 6 h, 1 μM XeC or 100 nM Tg, data not shown): slightly augmented CREB binding activity; however, this was not statistically significant
- induction of NF-κB binding activity by the agent alone (NF-κB [3]): Induction of NF-κB binding activity was observed
- basal NF-κB binding activity relative to control levels (NF-κB [3]; cultured primary cortical neurons, 1 μM XeC or 100 nM Tg, EMSA): statistically significant (p<0.05) elevation
